Results as given in patent US7632811B2, “Analogs of parathyroid hormone” (Societe de Conseils de Recherches et D'Applications …, priority 1995, dated 2009).
pKd: −log10 of the molar value. Non-standard residues stand in square brackets, D forms with d. Residues, ends and D or L forms follow the SMILES beside them. Cha = N[C@@H](CC1CCCCC1)C(=O)O; Ac6c = NC1(C(=O)O)CCCCC1; Aib = CC(C)(N)C(=O)O

Each compound was assayed against T1, PTH receptor present on SaOS-2 (human osteosarcoma cells) (Homo sapiens, UniProt Q03431) (assay: Binding to PTH receptor on SaOS-2 cells (competition with mono-125I-[Nle8,18,Tyr34(3-125I)]bPTH(1-34)NH2)). Conditions: Table I, 2 hrs at room temperature, read-out: Kd (half maximal inhibition of binding of mono-125I-[Nle8,18, Tyr34(3-125I)]bPTH(1-34)NH2).
T1 construct: host or cells: SaOS-2 human osteosarcoma cells (intact, confluent monolayers)
T1 sequence (Q03431 27-593): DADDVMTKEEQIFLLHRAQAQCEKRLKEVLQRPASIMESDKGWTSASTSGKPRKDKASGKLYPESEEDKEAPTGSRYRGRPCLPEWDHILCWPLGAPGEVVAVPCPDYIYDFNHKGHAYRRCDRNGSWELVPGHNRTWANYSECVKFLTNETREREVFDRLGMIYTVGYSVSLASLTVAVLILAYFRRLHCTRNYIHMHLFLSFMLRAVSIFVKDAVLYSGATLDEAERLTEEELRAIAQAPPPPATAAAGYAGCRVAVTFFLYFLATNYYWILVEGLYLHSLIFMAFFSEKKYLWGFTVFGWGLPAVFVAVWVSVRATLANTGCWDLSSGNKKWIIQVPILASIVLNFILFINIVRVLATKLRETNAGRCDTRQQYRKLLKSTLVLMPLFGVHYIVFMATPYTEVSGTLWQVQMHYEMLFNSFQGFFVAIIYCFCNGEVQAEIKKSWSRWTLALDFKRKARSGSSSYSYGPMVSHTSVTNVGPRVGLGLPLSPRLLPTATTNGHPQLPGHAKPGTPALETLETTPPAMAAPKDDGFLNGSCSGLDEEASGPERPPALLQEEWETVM
Description: A. Binding to PTH Receptor
The peptides of the invention were tested for their ability to bind to the PTH receptor present on SaOS-2 (human osteosarcoma cells). SaOS-2 cells (American Type Culture Collection, Rockville, Md.; ATCC #HTB 85) were maintained in RPMI 1640 medium (Sigma, St. Louis, Mo.) supplemented with 10% fetal bovine serum (FBS) and 2 mM glutamine at 37EC in a humidified atmosphere of 5% CO2 in air. The medium was changed every three or four days, and the cells were subcultured every week by trypsinization.
SaOS-2 cells were maintained for four days until they had reached confluence. The medium was replaced with 5% FBS in RPMI 1640 medium and incubated for 2 hrs at room temperature with 10×10^4 cpm mono-^125I-[Nle^8,18, Tyr^34(3-^125I)]bPTH(1-34)NH2 in the presence of a competing peptides of the invention at various concentrations between 10^−11 M to 10^−4 M. The cells were washed four times with ice-cold PBS and lysed with 0.1 M NaOH, and the radioactivity associated with the cells was counted in a scintillation counter. Synthesis of mono-^125I-[Nle^8,18, Tyr^34(3-^125I)]bPTH(1-34)NH2 was carried out as described in Goldman, M. E., et al., Endocrinol., 123:1468 (1988).
The binding assay was conducted with various peptides of the invention, and the Kd value (half maximal inhibition of binding of mono-^125I-[Nle^8,18, Tyr^34(3-^125I)]bPTH(1-34)NH2) for each peptide was calculated.

Row | pKd | Compound
1 | 6.70 | CC[C@H](C)[C@H](NC(=O)[C@H](CCC(=O)O)NC(=O)[C@H](CO)NC(=O)[C@@H](NC(=O)[C@@H](N)CO)C(C)C)C(=O)N[C@@H](CCC(N)=O)C(=O)N[C@@H](CC(C)C)C(=O)N[C@@H](CCSC)C(=O)N[C@@H](Cc1c[nH]cn1)C(=O)N[C@@H](CC(N)=O)C(=O)N[C@@H](CC(C)C)C(=O)NCC(=O)N[C@@H](CCCCN)C(=O)N[C@@H](Cc1c[nH]cn1)C(=O)N[C@@H](CC(C)C)C(=O)N[C@@H](CC(N)=O)C(=O)N[C@@H](CO)C(=O)N[C@@H](CCSC)C(=O)N[C@@H](CCC(=O)O)C(=O)N[C@@H](CCCNC(=N)N)C(=O)N[C@H](C(=O)N[C@@H](CCC(=O)O)C(=O)N[C@@H](CC1CCCCC1)C(=O)N[C@@H](CC(C)C)C(=O)N[C@@H](CCCNC(=N)N)C(=O)N[C@@H](CCCCN)C(=O)N[C@@H](CCCCN)C(=O)N[C@@H](CC(C)C)C(=O)N[C@@H](CCC(N)=O)C(=O)N[C@@H](CC(=O)O)C(=O)N[C@H](C(=O)N[C@@H](Cc1c[nH]cn1)C(=O)N[C@@H](CC(N)=O)C(=O)N[C@@H](Cc1ccccc1)C(N)=O)C(C)C)C(C)C [[Cha^23]hPTH(1-34)NH2] (H-SVSEIQLMHNLGKHLNSMERVE[Cha]LRKKLQDVHNF-NH2)
2 | 8.40 | CC[C@H](C)[C@H](NC(=O)[C@H](CCC(=O)O)NC(=O)[C@H](CO)NC(=O)[C@@H](NC(=O)[C@@H](N)CO)C(C)C)C(=O)N[C@@H](CCC(N)=O)C(=O)N[C@@H](CC1CCCCC1)C(=O)N[C@@H](CCSC)C(=O)N[C@@H](Cc1c[nH]cn1)C(=O)N[C@@H](CC(N)=O)C(=O)N[C@@H](CC1CCCCC1)C(=O)NCC(=O)N[C@@H](CCCCN)C(=O)N[C@@H](Cc1c[nH]cn1)C(=O)N[C@@H](CC(C)C)C(=O)N[C@@H](CC(N)=O)C(=O)N[C@@H](CO)C(=O)N[C@@H](CCSC)C(=O)NC(C)(C)C(=O)N[C@@H](CCCNC(=N)N)C(=O)N[C@H](C(=O)N[C@@H](CCC(=O)O)C(=O)N[C@@H](Cc1c[nH]c2ccccc12)C(=O)N[C@@H](CC(C)C)C(=O)N[C@@H](CCCNC(=N)N)C(=O)N[C@@H](CCCCN)C(=O)N[C@@H](CCCCN)C(=O)N[C@@H](CC(C)C)C(=O)N[C@@H](CCC(N)=O)C(=O)N[C@@H](CCCCN)C(=O)N[C@H](C(=O)N[C@@H](Cc1c[nH]cn1)C(=O)N[C@@H](CC(N)=O)C(=O)N[C@@H](Cc1ccccc1)C(N)=O)C(C)C)C(C)C [[Cha^7,11, Aib^19, Lys^30]hPTH(1-34)NH2] (H-SVSEIQ[Cha]MHN[Cha]GKHLNSM[Aib]RVEWLRKKLQKVHNF-NH2)
3 | 8.15 | CC[C@H](C)[C@H](NC(=O)[C@H](CCC(=O)O)NC(=O)[C@H](CO)NC(=O)[C@@H](NC(=O)[C@@H](N)CO)C(C)C)C(=O)N[C@@H](CCC(N)=O)C(=O)N[C@@H](CC(C)C)C(=O)N[C@@H](CCSC)C(=O)N[C@@H](Cc1c[nH]cn1)C(=O)N[C@@H](CC(N)=O)C(=O)N[C@@H](CC(C)C)C(=O)NCC(=O)N[C@@H](CCCCN)C(=O)N[C@@H](Cc1c[nH]cn1)C(=O)N[C@@H](CC(C)C)C(=O)N[C@@H](CC(N)=O)C(=O)N[C@@H](CO)C(=O)N[C@@H](CCSC)C(=O)N[C@@H](CCC(=O)O)C(=O)N[C@@H](CCCNC(=N)N)C(=O)N[C@H](C(=O)N[C@@H](CCC(=O)O)C(=O)N[C@@H](Cc1c[nH]c2ccccc12)C(=O)N[C@@H](CC(C)C)C(=O)N[C@@H](CCCNC(=N)N)C(=O)N[C@@H](CCCCN)C(=O)N[C@@H](CCCCN)C(=O)N[C@@H](CC(C)C)C(=O)N[C@@H](CCC(N)=O)C(=O)N[C@@H](CC(=O)O)C(=O)N[C@H](C(=O)N[C@@H](Cc1c[nH]cn1)C(=O)N[C@@H](CC(N)=O)C(=O)NC(C)(C)C(N)=O)C(C)C)C(C)C [[Aib^34]hPTH(1-34)NH2]
4 | 8.15 | CC[C@H](C)[C@H](NC(=O)[C@H](CCC(=O)O)NC(=O)[C@H](CO)NC(=O)[C@@H](NC(=O)[C@@H](N)CO)C(C)C)C(=O)N[C@@H](CCC(N)=O)C(=O)N[C@@H](CC1CCCCC1)C(=O)N[C@@H](CCSC)C(=O)N[C@@H](Cc1c[nH]cn1)C(=O)N[C@@H](CC(N)=O)C(=O)N[C@@H](CC1CCCCC1)C(=O)NCC(=O)N[C@@H](CCCCN)C(=O)N[C@@H](Cc1c[nH]cn1)C(=O)N[C@@H](CC(C)C)C(=O)N[C@@H](CC(N)=O)C(=O)N[C@@H](CO)C(=O)N[C@@H](CCSC)C(=O)NC(C)(C)C(=O)N[C@@H](CCCNC(=N)N)C(=O)N[C@H](C(=O)N[C@@H](CCC(=O)O)C(=O)N[C@@H](Cc1c[nH]c2ccccc12)C(=O)N[C@@H](CC(C)C)C(=O)N[C@@H](CCCNC(=N)N)C(=O)N[C@@H](CCCCN)C(=O)N[C@@H](CCCCN)C(=O)N[C@@H](CC(C)C)C(=O)N[C@@H](CCC(N)=O)C(=O)N[C@@H](CC(=O)O)C(=O)N[C@H](C(=O)N[C@@H](Cc1c[nH]cn1)C(=O)N[C@@H](CC(N)=O)C(=O)N[C@@H](Cc1ccccc1)C(N)=O)C(C)C)C(C)C [[Cha^7,11, Aib^19]hPTH(1-34)NH2] (H-SVSEIQ[Cha]MHN[Cha]GKHLNSM[Aib]RVEWLRKKLQDVHNF-NH2)

Same assay, conditions: Table II, 2 hrs at room temperature, read-out: Kd (half maximal inhibition of binding of mono-125I-[Nle8,18, Tyr34(3-125I)]bPTH(1-34)NH2)

Row | pKd | Compound
5 | 6.70 | CC[C@H](C)[C@H](NC(=O)[C@H](CO)NC(=O)[C@H](CCCCN)NC(=O)CNC(=O)[C@H](CCCCN)NC(=O)[C@H](CC(=O)O)NC(=O)[C@H](Cc1c[nH]cn1)NC(=O)[C@H](CC(C)C)NC(=O)[C@H](CC(C)C)NC(=O)[C@H](CCC(N)=O)NC(=O)[C@H](Cc1c[nH]cn1)NC(=O)[C@H](CCC(=O)O)NC(=O)[C@H](CO)NC(=O)[C@@H](NC(=O)[C@H](C)N)C(C)C)C(=O)N[C@@H](CCC(N)=O)C(=O)N[C@@H](CC(=O)O)C(=O)N[C@@H](CC(C)C)C(=O)N[C@@H](CCCNC(=N)N)C(=O)N[C@@H](CCCNC(=N)N)C(=O)N[C@@H](CCCNC(=N)N)C(=O)N[C@@H](CCC(=O)O)C(=O)N[C@@H](CC(C)C)C(=O)N[C@@H](CC(C)C)C(=O)N[C@@H](CCC(=O)O)C(=O)N[C@@H](CCCCN)C(=O)N[C@@H](CC(C)C)C(=O)N[C@@H](CC(C)C)C(=O)NC(C)(C)C(=O)N[C@@H](CCCCN)C(=O)NC1(C(=O)N[C@@H](Cc2c[nH]cn2)C(=O)N[C@H](C(=O)N[C@@H](C)C(N)=O)[C@@H](C)O)CCCCC1 [[Glu^22,25, Leu^23,28, Lys^26,30, Aib^29, Ahc^31]hPTHrP(1-34)NH2] (H-AVSEHQLLHDKGKSIQDLRRRELLEKLL[Aib]K[Ac6c]HTA-NH2)
6 | 6.64 | CC[C@H](C)[C@H](NC(=O)[C@H](CO)NC(=O)[C@H](CCCCN)NC(=O)CNC(=O)[C@H](CCCCN)NC(=O)[C@H](CC(=O)O)NC(=O)[C@H](Cc1c[nH]cn1)NC(=O)[C@H](CC(C)C)NC(=O)[C@H](CC(C)C)NC(=O)[C@H](CCC(N)=O)NC(=O)[C@H](Cc1c[nH]cn1)NC(=O)[C@H](CCC(=O)O)NC(=O)[C@H](CO)NC(=O)[C@@H](NC(=O)[C@H](C)N)C(C)C)C(=O)N[C@@H](CCC(N)=O)C(=O)N[C@@H](CC(=O)O)C(=O)N[C@@H](CC(C)C)C(=O)N[C@@H](CCCNC(=N)N)C(=O)N[C@@H](CCCNC(=N)N)C(=O)N[C@@H](CCCNC(=N)N)C(=O)N[C@@H](CCC(=O)O)C(=O)N[C@@H](CC(C)C)C(=O)N[C@@H](CC(C)C)C(=O)N[C@@H](CCC(=O)O)C(=O)N[C@@H](CCCCN)C(=O)NC1(C(=O)N[C@@H](CC(C)C)C(=O)NC(C)(C)C(=O)N[C@@H](CCCCN)C(=O)N[C@@H](CC(C)C)C(=O)N[C@@H](Cc2c[nH]cn2)C(=O)N[C@H](C(=O)N[C@@H](C)C(N)=O)[C@@H](C)O)CCCCC1 [[Glu^22,25, Leu^23,28,31, Lys^26,30, Ahc^27, Aib^29]hPTHrP(1-34)NH2] (H-AVSEHQLLHDKGKSIQDLRRRELLEK[Ac6c]L[Aib]KLHTA-NH2; N-terminus assumed)
